# Values joined by “and” are separate entries in the source; they are usually repeats but may differ in a detail not shown here. Equal entries are not always repeated.
# Key:
# [1] = tested on: S. pneumoniae (ATCC 6303); assay: Thigh infection model in neutropenic CD1 mice, S. pneumoniae; conditions: 100 mg/kg BID SC, 24 hours; for Log reduction: vs vehicle, 100 mg/kg
# [2] = tested on: methicillin-resistant S. aureus (ATCC 33591); assay: Thigh infection model in neutropenic CD1 mice, MRSA; conditions: 100 mg/kg BID SC, 24 hours
# [3] = tested on: S. aureus (MRSA) (ATCC33591); assay: Septicemia survival model in neutropenic CD1 mice, MRSA; format: in vivo; conditions: 100 mg/kg BID SC
smiles,measurement,setting,value
"CN[C@H](CC(C)C)C(=O)N[C@H]1C(=O)N[C@@H](CC(N)=O)C(=O)N[C@H]2C(=O)N[C@H]3C(=O)N[C@H](C(=O)N[C@H](C(=O)O)c4cc(O)cc(O)c4-c4cc3ccc4O)[C@H](O)c3ccc(c(Cl)c3)Oc3cc2cc(c3O[C@@H]2O[C@H](CO)[C@@H](O)[C@H](O)[C@H]2O[C@H]2C[C@](C)(N)[C@H](O)[C@H](C)O2)Oc2ccc(cc2Cl)[C@H]1O [Vancomycin, reference compound]",Mean bacterial tissue burden (log10/thigh),[1],3.4862 log10/thigh
same,Log reduction,[1],5.6265 Log
same,Log reduction,[1]; listed as vancomycin,5.63 Log
same,Mean bacterial tissue burden (log10/thigh),[2],5.0033 log10/thigh
same,Log reduction,"[2]; vs vehicle, 100 mg/kg",3.45 Log and 3.4455 Log
same,Percent Survival Day 1,[3],100%
same,Percent Survival Day 2,[3],100%
same,Percent Survival Day 3,[3],100%
same,Percent Survival Day 4,[3],80%
same,Percent Survival Day 5,[3],80%
same,Percent Survival Day 6,[3],80%
same,Percent Survival Day 7,[3],80%

# — patent US20150291565A1, “INDOLE COMPOUNDS AND THEIR USE AS ANTIMICROBIALS” (Memorial Sloan-Kettering Cancer Center, priority 2012, published 2015)
